ChEMBL document CHEMBL5360538, “Recent updates on 1,2,3-triazole-containing hybrids with in vivo therapeutic potential against cancers: A mini-review” (Eur J Med Chem, 2023)
Each block holds one compound with its values, some of them ahead of it.

What was measured:
[1] = test system: OC-314; experiment: Antiproliferative activity against human OC-314 cells assessed as reduction in cell viability by MTT assay; format: functional, cell-based
[2] = test system: OVCAR-8; experiment: Antiproliferative activity against human OVCAR-8 cells assessed as reduction in cell viability by MTT assay; format: functional, cell-based
[3] = test system: Caov-3 cell line; experiment: Antiproliferative activity against human Caov-3 cells assessed as reduction in cell viability by MTT assay; format: functional, cell-based
[4] = test system: SK-OV-3; experiment: Antiproliferative activity against human SK-OV-3 cells assessed as reduction in cell viability by MTT assay; format: functional, cell-based
[5] = test system: OVCAR-8; experiment: Antitumor activity against human OVCAR-8 cells xenografted in nude mouse assessed as inhibition of tumor growth at 100 mg/kg, IG administered daily for 21 days relative to control; format: functional; details: OVCAR-8, po, 504 h, time 21 day
[6] = Antitumor activity against mouse Lewis lung carcinoma cells implanted in C57BL/6J mouse model assessed as inhibition of tumor growth at 5.0 mg/kg, ip administered alternate days for 20 days in presence of 5.0 mg/kg gefitinib relative to control; format: functional; details: 480 h, time 20 day
[7] = test system: A549; experiment: Antiproliferative activity against human A549 cells assessed as inhibition of cell growth incubated for 24 hrs by MTT assay; format: functional, cell-based; details: A549, 24 h
[8] = animal or person; format: functional; details: Mus musculus, Lewis lung carcinoma, 480 h, route ip, time 20 day
[9] = test system: Ehrlich; experiment: Antitumor activity against mouse EAC cells implanted in Swiss albino mouse assessed as tumor growth inhibition at 5.0 mg/kg, ip administered alternate days for 10 days relative to control; format: functional; details: 240 h, time 10 day, read-out: TGI
[10] = test system: MDA-MB-231; experiment: Antiproliferative activity against human MDA-MB-231 cells assessed as inhibition of cell growth incubated for 48 hrs by MTT assay; format: functional, cell-based; details: MDA-MB-231, 48 h
[11] = Inhibition of Rac activation in human MDA-MB-231 cells treated for 24 hrs by Western blot analysis; format: cell-based
[12] = test system: MDA-MB-231; experiment: Antiproliferative activity against human MDA-MB-231 cells assessed as inhibition of cell growth incubated for 120 hrs by MTT assay; format: functional
[13] = test system: MDA-MB-435; experiment: Antitumor activity against GFP tagged bone metastatic variant of human MDA-MB-435 cells xenografted in athymic nu/nu mouse assessed as reduction in tumor growth at 1 mg/kg, ip administered thrice a week for 65 days relative to control; format: functional; set-up: scale not given: the % may be the effect or the level left; details: time 65 day
[14] = test system: MDA-MB-435; experiment: Antitumor activity against GFP tagged bone metastatic variant of human MDA-MB-435 cells xenografted in athymic nu/nu mouse assessed as reduction in tumor growth at 10 mg/kg, ip administered thrice a week for 65 days relative to control; format: functional; set-up: scale not given: the % may be the effect or the level left; details: time 65 day
[15] = test system: NCI-H1650; experiment: Antiproliferative activity against drug-sensitive human NCI-H1650 cells assessed as inhibition of cell growth incubated for 48 hrs by MTT assay; format: functional, cell-based; details: NCI-H1650, 48 h, pooled result: one value given for 9 cell lines, strains, targets or settings
[16] = test system: KYSE-450; experiment: Antitumor activity against human KYSE-450 cells xenografted in nu/nu nude mouse model assessed as inhibition of tumor growth at 25 mg/kg, ip administered every day for 15 days relative to control; format: functional; details: KYSE-450, 360 h, time 15 day
[17] = test system: Ehrlich; experiment: Antitumor activity against mouse EAC cells implanted in Swiss albino mouse model assessed as tumor growth inhibition at 10 mg/kg, ip administered each day for 9 days and measured after 14 days relative to control; format: functional; details: 336 h, time 14 day
[18] = test system: Ehrlich; experiment: Antitumor activity against mouse EAC cells implanted in Swiss albino mouse model assessed as increase in life span at 10 mg/kg, ip administered each day for 9 days and measured after 14 days relative to control; format: functional; details: time 14 day
[19] = Antiproliferative activity against human Tamoxifen-resistant MCF7 cells assessed as inhibition of cell growth by MTT assay; format: functional, cell-based
[20] = Antiproliferative activity against human Trastuzumab-resistant BT-474 cells assessed as inhibition of cell growth by MTT assay; format: functional, cell-based, Trastuzumab-resistant BT-474 cell
[21] = test system: MCF7; experiment: Antiproliferative activity against drug-sensitive human MCF7 cells assessed as inhibition of cell growth by MTT assay; format: functional, cell-based
[22] = test system: BT-474; experiment: Antiproliferative activity against drug-sensitive human BT-474 cells assessed as inhibition of cell growth by MTT assay; format: functional, cell-based
[23] = Plasma clearance in Albino mouse at 1.0 mg/kg, iv; format: ADME, organism-based
[24] = test system: SK-BR-3; experiment: Antiproliferative activity against drug-sensitive human SK-BR-3 cells assessed as inhibition of cell growth by MTT assay; format: functional, cell-based
[25] = test system: MCF7; experiment: Antitumor activity against human MCF7 cells xenografted in mouse assessed as tumor growth inhibition by measuring T/C ratio at 25 mg/kg, iv; format: functional
[26] = Elimination half life in Albino mouse plasma at 1.0 mg/kg, iv; format: ADME, organism-based; details: read-out: beta t1/2 (converted)
[27] = AUC(0 to t) in Albino mouse at 1.0 mg/kg, iv; format: ADME, organism-based; set-up: dose 1 mg/kg, route iv; details: in vivo
[28] = test system: MDA-MB-231; experiment: Antiproliferative activity against drug-sensitive human MDA-MB-231 cells assessed as inhibition of cell growth by MTT assay; format: functional, cell-based
[29] = test system: NCI-H211; experiment: Antiproliferative activity against human NCI-H211 cells assessed as reduction in cell viability by MTS assay; format: functional, cell-based
[30] = test system: MDA-MB-231; experiment: Antiproliferative activity against human MDA-MB-231 cells assessed as reduction in cell viability by MTS assay; format: functional, cell-based
[31] = test system: A549; experiment: Antiproliferative activity against human A549 cells assessed as inhibition of cell growth by MTT assay; format: functional, cell-based
[32] = test system: SGC-7901; experiment: Antiproliferative activity against human SGC-7901 cells assessed as inhibition of cell growth by MTT assay; format: functional, cell-based
[33] = test system: A549; experiment: Antitumor activity against human A549 cells xenografted in zebrafish model assessed as reduction in tumor focal area at 2.5 uM relative to control; format: functional; set-up: scale not given: the % may be the effect or the level left
[34] = test system: A549/TR; experiment: Antiproliferative activity against taxol-resistant human A549/Taxol cells assessed as inhibition of cell growth incubated for 72 hrs by MTT assay; format: functional, cell-based
[35] = test system: U2OS; experiment: Antiproliferative activity against human U2OS cells assessed as inhibition of cell growth incubated for 72 hrs by MTT assay; format: functional, cell-based
[36] = test system: A549; experiment: Antiproliferative activity against human A549 cells assessed as inhibition of cell growth incubated for 72 hrs by MTT assay; format: functional, cell-based; details: A549, 72 h
[37] = test system: A549; experiment: Antitumor activity against human A549 cells xenografted in Kunming mouse model assessed as inhibition of tumor growth at 20 mg/kg, iv administered twice daily for 2 weeks relative to control; format: functional; details: A549, 336 h
[38] = Antiproliferative activity against cisplatin-resistant human A549/DDP cells assessed as inhibition of cell growth incubated for 72 hrs by MTT assay; format: functional, cell-based
[39] = test system: HCT-116; experiment: Antiproliferative activity against human HCT-116 cells assessed as inhibition of cell growth incubated for 72 hrs by MTT assay; format: functional, cell-based; details: HCT-116, 72 h

SMILES: NS(=O)(=O)NCCNC(=O)c1n[nH]nc1-c1ccc(F)c(F)c1
inhibition in vivo at 5 mg/kg [9]: > 80%
IC50 [10]: 0.077 µM

SMILES: COc1ccc(-c2ccc3c(c2)OCC(=O)N3Cc2cn(-c3cc(Cl)cc(Cl)c3)nn2)cc1
inhibition in vivo at 10 mg/kg [17]: 54%
Activity [18]: 68.94%

SMILES: O=C1CCCC2=C1C(c1cn(-c3ccc(Cl)cc3)nn1)C1=C(CCCC1=O)N2
IC50 [19]: 0.153 µM
IC50 [20]: 0.153 µM
IC50 [21]: 0.153 µM
IC50 [22]: 0.153 µM
clearance [23]: 15.4 mL/min/kg
IC50 [24]: 0.153 µM
T/C [25]: 0.2
half-life [26]: 8.1 h
AUC(0-t) [27]: 232 ng·h/mL
IC50 [28]: 0.153 µM

SMILES: COc1cc2c(c(OC)c1OC)-c1ccc(OC)c(=O)cc1[C@@H](NC(C)=O)CC2 [COLCHICINE]
IC50 [31]: 0.043 µM
IC50 [32]: 0.043 µM

SMILES: COc1cc2ncnc(Nc3ccc(F)c(Cl)c3)c2cc1OCCCN1CCOCC1 [GEFITINIB]
Activity [33]: 18.95%

More lines, main results first:

IC50 [2]: 0.54 µM
IC50 [4]: 0.54 µM
SMILES: O=S(=O)(NCc1cn(Cc2cccc(Oc3ccccc3)c2)nn1)c1ccc(F)cc1
IC50 [1]: 0.54 µM
IC50 [3]: 0.54 µM
inhibition in vivo at 100 mg/kg [5]: 61.8%

IC50 [7]: 0.002 µM
SMILES: COc1ccc(-c2cn(CC3(C)C=Cc4cc(N)ccc4O3)nn2)cc1 (centres undefined)
inhibition in vivo at 5 mg/kg [6]: 80%
inhibition in vivo at 5 mg/kg [8]: 50%

IC50 [11]: 0.103 µM
GI50 [12]: 0.13 µM
SMILES: CCn1c2ccccc2c2cc(-n3nncc3-c3ccccc3)ccc21 [MBQ-167]
Activity [13]: 80%
Activity [14]: 95%

IC50 [15]: 3.26 µM
SMILES: FC(F)(F)c1ccc(-n2cc(-c3cccc(Nc4ncnc5cc6c(cc45)OCCOCCOCCO6)c3)nn2)cc1
inhibition in vivo at 25 mg/kg [16]: 25%

IC50 [29]: 0.00657 µM
IC50 [30]: 0.00497 µM
SMILES: Cc1nnn(C)c1-c1cnc2c3ccc(C(C)(C)O)cc3n([C@H](c3ccccc3)C3CCOCC3)c2c1 [EZOBRESIB]

IC50 [34]: 0.28 µM
IC50 [35]: 0.28 µM
IC50 [36]: 0.28 µM
IC50 [39]: 0.28 µM
SMILES: CC(C)=CC[C@]12OC(C)(C)C3C[C@H](C=C4C(=O)c5c(OCc6cn(CCN7CCOCC7)nn6)cccc5OC431)C2=O
inhibition in vivo at 20 mg/kg [37]: 71.3%
IC50 [38]: 0.28 µM
